Key:
NK-1 receptors = target: T1, NK-1 receptors (Cavia porcellus, UniProt P30547); test: Functional NK-1 antagonism on isolated guinea pig aorta rings (inhibition of Substance P-induced relaxation); format: cell-based; conditions: half maximum inhibition of relaxation of tone caused by 0.01 μmol Substance P; phenylephrine-tonicised guinea pig aorta
T1 construct: isolated ring preparations, kept in an oxygenated nutrient solution, of the aortas of Pirbright-White guinea pigs; from tissue; host or cells: isolated aorta rings of Pirbright-White guinea pigs
Description: The action antagonistic to NK-1 receptors of the test substances was measured in vitro on isolated ring preparations, kept in an oxygenated nutrient solution, of the aortas of Pirbright-White guinea pigs. The inhibition by the test substances of the relaxation of tone of the aorta preparations, caused after stimulation with the NK-1 agonist Substance P, was determined.
In order to measure the contraction of the vessel muscles, the preparations were fixed to a hook, joined by a thread to a force measuring apparatus and the contractions were recorded in each case on a plotter. The aorta preparations were tonicised with phenylephrine. Then before and after the administration of the test substance the NK-1 receptors of the preparations were stimulated with 0.01 μmol Substance P, which caused relaxation of the tone. The relaxations before and after the administration of the test substance were quantified in percent. The effective concentration of the half maximum inhibition of the relaxation of the tone (=EC50) was calculated. The negative common logarithm of the EC50 value (=pEC50) was given as characteristic variable. The pEC50 value is a measurement of the functional effectiveness of the test substances on NK-1 receptors.

human NK-1 receptors = target: T2, human NK-1 receptors (Homo sapiens, UniProt P25103); test: Binding power of the test substances to NK-1 receptors in vitro ([3H]-Substance P displacement, CHO cell membranes); conditions: negative common logarithm of Ki calculated from IC50
T2 construct: expressed in transfected cells; host or cells: CHO cells (membrane preparation)
Description: The affinity of the test substances to human NK-1 receptors was measured in vitro. The inhibition of the binding of the physiological neurokinin (Substance P) to neurokinin-1 receptors was determined.
The receptor binding studies were performed with [^3H]-Substance P as ligand. For the binding test, different samples of a membrane preparation of CHO cells (=egg cells of the Chinese hamster, […]), which express the human NK-1 receptor (“Accession Number” of the associated nucleic acid sequence=M74290; “Accession Number” of the associated protein sequence=P25103; cf. Takeda, Y.; Chou, K. B., Takeda, J.; Sachais, B. S. and Krause, J. E; Biochemical and Biophysical Research Communications, 179(3) (1991) 1232-1240), were incubated with a solution of the marked ligand, with the incubation mixtures containing no test substance or additions of different concentrations of test substance. Then, separation of bound and free ligands was performed in each of the samples with the aid of glass-fibre filtration. The fraction remaining in the filter was washed several times with buffer solution and then the radioactivity of the fraction remaining in the filter was measured using a beta scintillation counter.
For the compounds of Examples 1 and 8 to 65, the affinity to human NK-1 receptors was determined in each case by a single measurement of the test substances in a concentration of 10^−7 mol/l.
For the compounds of Examples 2 and 4-6, that concentration which effects half maximum displacement of the bound ligand was determined as IC50 of the respective test substance. From this, the corresponding inhibition constant (Ki value) of the test substance was calculated, and was stated as the negative common logarithm of the Ki value (=pKi value). The pKi value is a measurement of the affinity of the test substances to human NK-1 receptors.

basal blood pressure = test: Vasodepressive effects based on calcium-antagonistic properties (action on basal blood pressure); format: in vivo; conditions: guinea pig, i.v. doses of up to 0.1 μmol/kg and p.o. doses of up to 3.2 μmol/kg
Description: The arterial catheter served to measure the blood pressure. The administration of Substance P and, in the case of i.v. administration, also the administration of the test substance, was effected by means of the venous access. After a 20-minute equilibration phase, 50 pmol/animal of Substance P were administered (bolus, i.v.) as a test stimulus. One minute after administration of the test stimulus, in each case the maximum drop in blood pressure induced thereby was determined as a control for the later stimulation of the NK-1 receptors by the test substance. Then the test substance was administered. For the i.v. investigation, the test substance was administered in metered doses of 0.01 to 0.1 μmol/kg. For the p.o. investigation, the test substance was administered in metered doses of 0.1 to 3.2 μmol/kg. Tylose or Tylose/ethanol was used as the vehicle for the p.o. investigations. Then, in each case the extent of the vasodepression inhibited by the test substance was measured, starting 1 minute after administration of test substance, up to 90 minutes after administration of test substance, at intervals of 15 minutes each time. The doses at which, dependent on the time, just 50% inhibition of the Substance P-induced vasodepression occurs due to the test substance were determined from these measured values as ED50 values. […]

gerbil foot tapping = test: Gerbil foot tapping test for CNS-permeable NK-1 antagonists; format: in vivo; conditions: doses of up to 30 mg/kg p.o.
Solubility in water = format: physicochemical

T2 sequence (P25103 whole entry): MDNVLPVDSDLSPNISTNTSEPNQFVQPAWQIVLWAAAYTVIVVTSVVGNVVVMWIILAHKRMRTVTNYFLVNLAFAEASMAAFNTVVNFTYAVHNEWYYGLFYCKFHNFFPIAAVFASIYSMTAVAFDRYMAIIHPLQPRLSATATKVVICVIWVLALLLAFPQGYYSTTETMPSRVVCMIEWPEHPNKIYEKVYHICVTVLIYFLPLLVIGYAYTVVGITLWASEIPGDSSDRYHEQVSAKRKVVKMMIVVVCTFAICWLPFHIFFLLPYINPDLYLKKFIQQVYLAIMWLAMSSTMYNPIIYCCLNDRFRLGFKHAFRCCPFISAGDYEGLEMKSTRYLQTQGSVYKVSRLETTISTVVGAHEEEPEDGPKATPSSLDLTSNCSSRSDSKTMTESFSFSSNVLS
T1 sequence (P30547 whole entry): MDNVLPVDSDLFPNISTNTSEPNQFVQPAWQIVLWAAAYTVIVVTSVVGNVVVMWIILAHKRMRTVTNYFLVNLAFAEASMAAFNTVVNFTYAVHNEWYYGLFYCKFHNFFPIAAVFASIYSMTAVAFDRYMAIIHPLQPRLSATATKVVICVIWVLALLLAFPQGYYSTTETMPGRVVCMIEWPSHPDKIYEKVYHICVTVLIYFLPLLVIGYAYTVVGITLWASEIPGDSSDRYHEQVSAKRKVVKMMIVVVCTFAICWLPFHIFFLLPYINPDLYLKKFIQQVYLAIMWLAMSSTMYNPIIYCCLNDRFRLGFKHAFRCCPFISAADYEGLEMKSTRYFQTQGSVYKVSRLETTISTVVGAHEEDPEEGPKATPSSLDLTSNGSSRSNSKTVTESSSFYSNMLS

## CN(C)Cc1n[nH]nc1CN1CCN(C(=O)c2cc(C(F)(F)F)cc(C(F)(F)F)c2)[C@H](Cc2c[nH]c3ccccc23)C1 [Example 4, (2R)-1-[3,5-Bis(trifluoromethyl)benzoyl]-2-(1H-indol-3-ylmethyl)-4-{[5-(dimethylaminomethyl)-2H-1,2,3-triazol-4-yl]methyl}piperazine]
NK-1 receptors
  EC50: 2.51 nM
Human NK-1 receptors
  Ki: 5.01 nM

## O=C(c1cc(C(F)(F)F)cc(C(F)(F)F)c1)N1CCN(Cc2n[nH]nc2CN2CCOCC2)C[C@H]1Cc1c[nH]c2ccccc12 [Example 1, (2R)-1-[3,5-Bis(trifluoromethyl)benzoyl]-2-(1H-indol-3-ylmethyl)-4-{[5-(morpholinomethyl)-2H-1,2,3-triazol-4-yl]methyl}piperazine]
Basal blood pressure
  vasodepression (action on basal blood pressure, calcium-antagonistic side-effect): no significant vasodepression
NK-1 receptors
  EC50: 1 nM
Gerbil foot tapping
  typical effects of CNS-permeable NK-1 antagonists: did not exhibit any typical effects of CNS-permeable NK-1 antagonists

## Cl.Cl.O=C(c1cc(C(F)(F)F)cc(C(F)(F)F)c1)N1CCN(Cc2n[nH]nc2CN2CCOCC2)C[C@H]1Cc1c[nH]c2ccccc12 [(2R)-1-[3,5-bis(trifluoromethyl)benzoyl]-2-(1H-indol-3-ylmethyl)-4-{[5-(morpholinomethyl)-2H-1,2,3-triazol-4-yl]methyl}piperazine-dihydrochloride]
Solubility in water
  solubility in water: comparatively readily soluble in water

## CC(C)N(Cc1n[nH]nc1CN1CCN(C(=O)c2cc(C(F)(F)F)cc(C(F)(F)F)c2)[C@H](Cc2c[nH]c3ccccc23)C1)C(C)C [Example 6]
NK-1 receptors
  EC50: 1.26 nM
Human NK-1 receptors
  Ki: 3.98 nM

## Cn1cc(C[C@@H]2CN(Cc3n[nH]nc3CN3CCOCC3)CCN2C(=O)c2cc(C(F)(F)F)cc(C(F)(F)F)c2)c2ccccc21 [Example 3]
NK-1 receptors
  EC50: 3.98 nM

## CCN(CC)Cc1n[nH]nc1CN1CCN(C(=O)c2cc(C(F)(F)F)cc(C(F)(F)F)c2)[C@H](Cc2c[nH]c3ccccc23)C1 [Example 5]
NK-1 receptors
  EC50: 2 nM
Human NK-1 receptors
  Ki: 5.01 nM

## O=C(c1cc(C(F)(F)F)cc(C(F)(F)F)c1)N1CCN(Cc2n[nH]nc2CN2CCNCC2)C[C@H]1Cc1c[nH]c2ccccc12 [Example 2]
NK-1 receptors
  EC50: 0.794 nM
Human NK-1 receptors
  Ki: 3.98 nM

— patent publication US6407106B1, “N-triazolylmethyl-piperazine compounds with neurokinin-receptor antagonist activity” (Solvay Pharmaceuticals GmbH, priority 2000, dated 2002)
